From ChEMBL document CHEMBL5352465, “Small molecules containing chalcogen elements (S, Se, Te) as new warhead to fight neglected tropical diseases” (Eur J Med Chem, 2023)

Key:
Leishmania infantum [1] = test: Antileishmanial activity against Leishmania infantum promastigotes assessed as inhibition of parasite growth; type: functional, organism-based
Leishmania infantum [2] = test: Antileishmanial activity against Leishmania infantum amastigotes assessed as inhibition of parasite growth; type: functional, organism-based
[3] = target: Cruzipain (Trypanosoma cruzi) (UniProt P25779); test: Inhibition of Trypanosoma cruzi recombinant Cruzaine using Z-FR-AMC as substrate preincubated for 10 mins followed by substrate addition by fluorimeter analysis
Chain of Cruzipain (Trypanosoma cruzi) (P25779 123-467 limits assumed): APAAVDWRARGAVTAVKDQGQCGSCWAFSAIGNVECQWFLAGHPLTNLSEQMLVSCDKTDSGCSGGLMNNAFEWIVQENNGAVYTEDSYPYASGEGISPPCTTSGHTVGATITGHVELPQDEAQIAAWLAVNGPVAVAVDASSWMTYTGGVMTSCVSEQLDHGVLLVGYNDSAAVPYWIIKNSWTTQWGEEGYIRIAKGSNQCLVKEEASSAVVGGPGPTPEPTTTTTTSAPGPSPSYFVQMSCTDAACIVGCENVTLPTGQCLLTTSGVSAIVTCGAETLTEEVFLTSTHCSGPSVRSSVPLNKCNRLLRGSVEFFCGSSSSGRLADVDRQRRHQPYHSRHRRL

Trypanosoma cruzi [4] = test: Antitrypanosomal activity against Trypanosoma cruzi epimastigote Dm28c strain assessed as parasite growth inhibition incubated for 96 hrs by Neubauer chamber based light microscopic analysis; type: functional, organism-based
Trypanosoma cruzi [5] = test: Antitrypanosomal activity against Trypanosoma cruzi epimastigote Dm28c strain assessed as parasite growth inhibition; type: functional, organism-based
[6] = Selectivity index, ratio of CC50 for cytotoxicity against mouse RAW264.7 cells to IC50 for antitrypanosomal activity against Trypanosoma cruzi amastigote; type: toxicity, cell-based; settings: read-out: Ratio CC50/IC50
[7] = Selectivity index, ratio of CC50 for cytotoxicity against mouse RAW264.7 cells to IC50 for antitrypanosomal activity against Trypanosoma cruzi epimastigote; type: toxicity, cell-based; settings: read-out: Ratio CC50/IC50
Trypanosoma cruzi [8] = test: Antitrypanosomal activity against Trypanosoma cruzi amastigote assessed as parasite growth inhibition; type: functional, organism-based
Trypanosoma cruzi [9] = test: Antitrypanosomal activity against bloodstream Trypanosoma cruzi Y strain trypomastigotes assessed as parasite growth inhibition incubated for 24 hrs by light microscopic analysis; type: functional, organism-based
Trypanosoma cruzi [10] = test: Antitrypanosomal activity against Trypanosoma cruzi arequipa strain trypomastigotes assessed as parasite growth inhibition incubated for 48 hrs by resazurin staining based analysis; type: functional, organism-based
Trypanosoma cruzi [11] = test: Antitrypanosomal activity against Trypanosoma cruzi arequipa strain epimastigotes assessed as parasite growth inhibition incubated for 48 hrs by resazurin staining based analysis; type: functional, organism-based
Trypanosoma cruzi [12] = test: Antitrypanosomal activity against Trypanosoma cruzi arequipa strain amastigotes assessed as parasite growth inhibition incubated for 48 hrs by resazurin staining based analysis; type: functional, organism-based
Leishmania amazonensis = test: Antileishmanial activity against Leishmania amazonensis promastigotes assessed as inhibition of parasite growth; type: functional, organism-based
[13] = Selectivity index, ratio of CC50 for human WI26VA4 cells to ratio of IC50 for antileishmanial activity against Leishmania infantum MHOM/BR/74/PP75 promastigote; type: toxicity; settings: read-out: Ratio CC50/IC50
[14] = Selectivity index, ratio of CC50 for human WI26VA4 cells to ratio of IC50 for antileishmanial activity against Leishmania braziliensis MHOM/BR/75/M2903 promastigote; type: toxicity; settings: read-out: Ratio CC50/IC50
Leishmania infantum [15] = test: Antileishmanial activity against Leishmania infantum MHOM/BR/74/PP75 strain promastigotes assessed as reduction in cell viability incubated for 48 hrs by MTT assay; type: functional, organism-based; settings: MHOM/BR/74/PP75, 48 h
Leishmania braziliensis = test: Antileishmanial activity against Leishmania braziliensis MHOM/BR/75/M2903 strain promastigotes assessed as reduction in cell viability incubated for 48 hrs by MTT assay; type: functional, organism-based; settings: MHOM/BR/75/M2903, 48 h
Trypanosoma cruzi [16] = test: Antitrypanosomal activity against Trypanosoma cruzi epimastigote assessed as parasite growth inhibition; type: functional, organism-based
Trypanosoma cruzi [17] = test: Antitrypanosomal activity against bloodstream Trypanosoma cruzi INC-5 strain trypomastigotes assessed as parasite growth inhibition incubated for 24 hrs by microscopic analysis; type: functional
[18] = Selectivity index, ratio of CC50 for mouse J774.A1 cells to ratio of IC50 for antitrypanosomal activity against bloodstream Trypanosoma cruzi INC-5 strain trypomastigotes; type: toxicity; settings: read-out: Ratio CC50/IC50
Trypanosoma cruzi [19] = test: Antitrypanosomal activity against bloodstream Trypanosoma cruzi NINOA strain trypomastigotes assessed as parasite growth inhibition incubated for 24 hrs by microscopic analysis; type: functional
[20] = Selectivity index, ratio of CC50 for mouse J774.A1 cells to ratio of IC50 for antitrypanosomal activity against bloodstream Trypanosoma cruzi NINOA strain trypomastigotes; type: toxicity; settings: read-out: Ratio CC50/IC50
Leishmania major = test: Antileishmanial activity against Leishmania major promastigote assessed as inhibition of parasite growth; type: functional, organism-based

With `O=C(CSc1nc(-c2ccccc2)cc2cc(-c3ccccc3)nn12)N/N=C/c1ccccc1` the IC50 (Leishmania infantum [1]) was 4.92 µM and the IC50 (Leishmania infantum [2]) was 5.85 µM.

`CN(C)c1ccc(/C=N/NC(N)=S)cc1` gave an inhibition [3] of 70%.

For `NS(=O)(=O)c1ccc(-c2cnc(C[Se]c3ccccc3)[se]2)cc1`, the IC50 (Leishmania infantum [2]) was 4.11 µM.

For `C/C(=N\NC(N)=S)c1ccc(Cl)cc1Cl`, the IC50 (Trypanosoma cruzi [4]) was 24.8 µM.

Compound `NS(=O)(=O)c1ccc(NC(=O)Cc2ccccc2Br)c(F)c1` has an IC50 (Trypanosoma cruzi [5]) of 5.66 µM, a selectivity ratio [6] of 3 and a selectivity ratio [7] of 1. For the same compound, the IC50 (Trypanosoma cruzi [8]) was 2.27 µM.

Work on `c1ccc2c(c1)nnn2C[Se][Se]Cn1nnc2ccccc21` yielded an IC50 (Leishmania infantum [2]) of 0.45 µM.

With `O=C1C(=O)c2ccccc2C2=C1CC(C[Se]c1cccc(C(F)(F)F)c1)O2` (stereo unspecified) the IC50 (Trypanosoma cruzi [9]) was 75.5 µM.

Work on `Cc1ccc(C[Se]C#N)cc1` yielded an IC50 (Trypanosoma cruzi [10]) of 4.5 µM, an IC50 (Trypanosoma cruzi [11]) of 3 µM and an IC50 (Trypanosoma cruzi [12]) of 3.1 µM.

In the case of `CC1=CC[C@@H](C(C)(C)NC(=S)N/N=C/c2ccc([N+](=O)[O-])cc2)CC1`, the IC50 (Leishmania amazonensis) is reported as 11.2 µM.

In the case of `NS(=O)(=O)c1nnc(NC(=O)Cc2ccccc2Br)s1`, the IC50 (Trypanosoma cruzi [5]) is reported as 3.98 µM, the selectivity ratio [6] is reported as 5 and the selectivity ratio [7] is reported as 2. The IC50 (Trypanosoma cruzi [8]) was 2.15 µM.

For `O=C1NC(=O)/C(=C/c2ccccc2Cl)S1`, the selectivity ratio [13] was 0.89, the selectivity ratio [14] was 0.86 and the IC50 (Leishmania infantum [15]) was 68.8 µM. For the same compound, the IC50 (Leishmania braziliensis) was 71 µM.

With `COc1ccc(-c2c(/N=C/NC(N)=S)c(C(F)(F)F)nn2-c2ccccc2)cc1` the IC50 (Trypanosoma cruzi [16]) was 29.7 µM.

`Clc1ccc(CSc2nc3ccccc3s2)cc1` gave an LC50 (Trypanosoma cruzi [17]) of 263 µM, a selectivity ratio [18] of over 3.42 and an LC50 (Trypanosoma cruzi [19]) of over 350 µM.

Work on `FC(F)(F)c1ccc(C[Se][Se]Cc2ccc(C(F)(F)F)cc2)cc1` yielded an IC50 (Trypanosoma cruzi [10]) of 1.5 µM, an IC50 (Trypanosoma cruzi [11]) of 1.9 µM and an IC50 (Trypanosoma cruzi [12]) of 0.8 µM.

With `NC(=S)N/C=N/c1c(C(F)(F)F)nn(-c2ccccc2)c1-c1ccc(F)cc1` the IC50 (Trypanosoma cruzi [16]) was 69.3 µM.

With `NS(=O)(=O)c1nnc(NC(=O)Cc2ccc(Cl)cc2)s1` the IC50 (Trypanosoma cruzi [5]) was 6.24 µM, the selectivity ratio [6] was 1 and the selectivity ratio [7] was 1. The IC50 (Trypanosoma cruzi [8]) was 3.47 µM.

`O=C1c2ccccc2C(=O)c2cc(C[Se][Se]Cc3ccc4c(c3)C(=O)c3ccccc3C4=O)ccc21` gave an IC50 (Leishmania infantum [2]) of 0.68 µM.

Work on `CSc1ccc(C[Se][Se]Cc2ccc(SC)cc2)cc1` yielded an IC50 (Trypanosoma cruzi [10]) of 1.7 µM, an IC50 (Trypanosoma cruzi [11]) of 1.8 µM and an IC50 (Trypanosoma cruzi [12]) of 1.2 µM.

For `NC(=S)N/C=N/c1c(C(F)(F)F)nn(-c2ccccc2)c1-c1ccc(Br)cc1`, the IC50 (Trypanosoma cruzi [16]) was 30.3 µM.

`CC1(C)OC2=C(CC1[Se]c1cccc3ccccc13)C(=O)C(=O)c1ccccc12` (stereo unspecified) gave an IC50 (Trypanosoma cruzi [9]) of 57 µM.

For `CCOP(=S)(Nc1ccc([Se][Se]c2ccc(NP(=S)(OCC)OCC)cc2)cc1)OCC`, the IC50 (Leishmania infantum [2]) was 0.79 µM.

Work on `O=S(=O)(Nc1ccc([Se][Se]c2ccc(NS(=O)(=O)c3ccc(C(F)(F)F)cc3)cc2)cc1)c1ccc(C(F)(F)F)cc1` yielded an IC50 (Trypanosoma cruzi [10]) of 2 µM, an IC50 (Trypanosoma cruzi [11]) of 2.7 µM and an IC50 (Trypanosoma cruzi [12]) of 2.3 µM.

`Fc1c(F)c(F)c(CSc2nc3ccccc3s2)c(F)c1F` gave an LC50 (Trypanosoma cruzi [17]) of 185 µM, a selectivity ratio [20] of 1.69 and a selectivity ratio [18] of 1.34. For the same compound, the LC50 (Trypanosoma cruzi [19]) was 147 µM.

For `N#C[Se]Cc1ccccc1[N+](=O)[O-]`, the IC50 (Trypanosoma cruzi [10]) was 1.3 µM, the IC50 (Trypanosoma cruzi [11]) was 0.9 µM and the IC50 (Trypanosoma cruzi [12]) was 0.5 µM.

With `NS(=O)(=O)c1ccc(C[Te]c2ccc3ccccc3c2)cc1` the IC50 (Leishmania infantum [2]) was 5.83 µM.

`O=C(Nc1ccc([Se][Se]c2ccc(NC(=O)c3ccco3)cc2)cc1)c1ccco1` gave an IC50 (Trypanosoma cruzi [10]) of 1.8 µM and an IC50 (Trypanosoma cruzi [12]) of 3.2 µM.

In the case of `N#C[Se]Cc1cccc(C#N)c1`, the IC50 (Trypanosoma cruzi [10]) is reported as 0.9 µM, the IC50 (Trypanosoma cruzi [11]) is reported as 1 µM and the IC50 (Trypanosoma cruzi [12]) is reported as 0.8 µM.

`O=C1NC(=O)/C(=C/c2cc(Cl)cc(Cl)c2Cl)S1` gave a selectivity ratio [13] of 0.96, a selectivity ratio [14] of 0.63 and an IC50 (Leishmania infantum [15]) of 30.4 µM. For the same compound, the IC50 (Leishmania braziliensis) was 46.4 µM.

Compound `NS(=O)(=O)c1ccc(CCNC(=O)Cc2ccc(Br)cc2)cc1` has an IC50 (Trypanosoma cruzi [5]) of 7.36 µM, a selectivity ratio [6] of 0.44 and a selectivity ratio [7] of 0.44. It also gave an IC50 (Trypanosoma cruzi [8]) of 3.51 µM.

`O=C1c2cccc3cccc(c23)C(=O)C1CCCCCCN=C=[Se]` showed an IC50 (Leishmania amazonensis) of 0.2 µM and an IC50 (Leishmania major) of 0.03 µM.

Work on `O=C1NC(=O)/C(=C/c2ccc(Cl)cc2Cl)S1` yielded a selectivity ratio [13] of 0.82, a selectivity ratio [14] of 0.76 and an IC50 (Leishmania infantum [15]) of 40.9 µM. The IC50 (Leishmania braziliensis) was 44.2 µM.

`[Se]=C=NCCCCc1ccccc1` [PHENYLBUTYL ISOSELENOCYANATE] showed an IC50 (Leishmania amazonensis) of 4.5 µM and an IC50 (Leishmania major) of 7.2 µM.

`NS(=O)(=O)c1ccc(NC(=[Se])NC(=O)c2ccccc2)cc1` showed an IC50 (Leishmania infantum [2]) of 5.23 µM.

In the case of `O=P(Nc1ccc([Se][Se]c2ccc(NP(=O)(Oc3ccccc3)Oc3ccccc3)cc2)cc1)(Oc1ccccc1)Oc1ccccc1`, the IC50 (Leishmania infantum [2]) is reported as 14.3 µM.
